Laboratory results taken from patent US9834549B2, “3,3-disubstituted-(8-aza-bicyclo[3.2.1]OCT-8-yl)-[5-(1H-pyrazol-4-yl)-thiophen-3-yl]-methanones as inhibitors of 11 (β)-HSD1” (The University Of Edinburgh, priority 2010, dated 2017).
Where two headings read alike, the source gives them in different places.

Key:
human 11β-HSD1 = biological target: T1, human 11β-HSD1 (Homo sapiens, UniProt P28845); assay: Cellular in vitro 11β-HSD1 enzyme inhibition assay (SPA, HEK293/11β-HSD1 cells); type: cell-based; conditions: HEK293, potency groups, read-out: IC50 for 11β-HSD1 (HEK293)
T1 construct: stably transfected with a construct containing the full-length gene coding for the human 11β-HSD1 enzyme; expressed in transfected cells; host or cells: HEK293 (stably transfected, HEK293/11β-HSD1)
Description: Compounds were assessed by a Scintillation Proximity Assay (SPA) performed according to the following protocol:
HEK293 cells were stably transfected with a construct containing the full-length gene coding for the human 11β-HSD1 enzyme to create HEK293/11β-HSD1 cells. Cells were routinely cultured in DMEM containing 10% calf foetal serum, 1% glutamine, and 1% penicillin and streptomycin. Prior to assay, cells were plated at 2×10^4 cells/well in 96-well poly-D-Lys coated flat-bottomed microplates and incubated in 5% CO2, 95% O2 at 37° C. for 24 hours. The media in each well was removed immediately before assay.
Compounds to be tested were dissolved in DMSO at 10 mM and serially diluted into water containing 10% DMSO. Diluted compounds at a volume of 10 μL were added to wells of a 96-well V-bottomed microplate. A solution of DMEM, 1% glutamine, 1% penicillin and streptomycin, and 22 nM tritiated cortisone was prepared and 90 μL added to each well of the assay plate. This solution (100 μL/well) was transferred to the plate containing the cells. The plate was then incubated in 5% CO2, 95% O2 at 37° C. for 2 hours.
Following this incubation, 50 μL of the assay solution was transferred to each well of a 96-well scintillation microplate. A mixture consisting of anti-mouse YSi SPA beads, pre-mixed with anti-cortisol antibody in assay buffer (50 mM Tris.HCl, pH 7.0; 300 mM NaCl; 1 mM EDTA, 5% glycerol) was prepared and 50 μL added to each well of the scintillation microplate. An adhesive strip was applied to the microplate and the plate gently shaken for at least 2 hours at room temperature, and then spun briefly on a low speed centrifuge. The plate was read on a scintillation counter suitable for 96-well microplates. For the calculation of percentage inhibition, a series of wells were added to the plate that represented the assay maximum and the assay minimum: one set that contained substrate without cells (minimum) and another set that contained substrate and cells without any compound (maximum).
The calculation of median inhibitory concentration (IC50) values for the compounds was performed using GraphPad Prism® software. Dose-response curves for each compound were plotted as fractional inhibition and data fitted to the four parameter logistic equation.

[1] = In vitro human liver microsomal stability assay; type: in vitro ADME; conditions: human liver microsomes
Description: To predict in vivo metabolism of compounds, the stability of compounds incubated with human liver microsomes in vitro was determined. Human liver microsome preparations were stored at −80° C. and thawed on ice prior to use. The thawed microsomes were diluted to a concentration of 2 mg/mL in 50 mM sodium phosphate, pH 7.4. Reference and test compounds were prepared as 10 mM stocks in 100% DMSO and diluted to 1 mM in acetonitrile before use. Each compound was tested in triplicate as follows:
4 μL of test or reference compound was added to a well of a 24-well microplate and 0.5 mL of 4 mM NADPH added. The plate was then transferred to a shaker for 10 minutes at room temperature. 30 μL of the compound/NADPH solution was transferred to the well of a 96-well microplate and incubated at 37° C. for 5 minutes. 30 μL of human liver microsomes (pre-incubated at 37° C. for 5 minutes) was added to the well containing the compound/NADPH solution and the plate incubated for the selected period of time (typically 0 or 30 minutes). The reaction was stopped by adding 60 μL of ice cold […] trichloroacetic acid. The plate was centrifuged at 1000 rpm for 5 minutes at room temperature and the supernatant transferred to the well of a new 96-well V-bottomed microplate for mass spectrometric analysis.
Samples were analyzed by TSQ Quantum Discovery Tandem Mass Spectrometer and Surveyor Liquid Chromatogram (Thermo, Hemel-Hempstead, UK). 10 μL of each sample was injected in a mobile phase consisting of 60%:40% methanol:5 mM ammonium acetate at a flow rate of 0.5 mL/minute. The column used was a BDS hypersil, C18, 50×2.1 mm with a 5 μm particle size.
Each compound was tuned with a spray voltage of 3000 V and a capillary temperature of 300° C. and values for tube lens, CID and product ions were determined.
The peak area for each compound was measured in triplicate for the 0 and 30 minute samples and the average of each was reported. The percentage remaining after 30 minutes was calculated as the average peak area of the sample after 30 minutes divided by the average peak area at 0 minutes. The RSD was 10% or lower for each compound.

T1 sequence (P28845 whole entry): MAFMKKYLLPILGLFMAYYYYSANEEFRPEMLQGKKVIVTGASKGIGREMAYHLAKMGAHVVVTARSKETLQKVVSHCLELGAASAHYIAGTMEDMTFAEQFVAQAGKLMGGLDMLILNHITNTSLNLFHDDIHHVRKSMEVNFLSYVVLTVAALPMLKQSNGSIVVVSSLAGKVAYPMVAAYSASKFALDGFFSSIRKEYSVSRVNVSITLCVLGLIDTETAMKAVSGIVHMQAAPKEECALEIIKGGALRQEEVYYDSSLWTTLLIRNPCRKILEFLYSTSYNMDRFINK

SMILES | IC50 (human 11β-HSD1) [µM] | % Parent Remaining at 30 min [1] | IC50 (human 11β-HSD1; μM) [µM]
N#CC1(c2ncccn2)CC2CCC(C1)N2C(=O)c1csc(-c2cn[nH]c2)c1 (stereo not shown) [XX-26] | ≤ 0.1 |  | 
O=C(c1csc(-c2cn[nH]c2)c1)N1C2CCC1CC(O)(c1cccnn1)C2 (stereo not shown) [XX-27] | ≤ 0.1 | +++ (61-100% +++) | 
O=C(c1csc(-c2cn[nH]c2)c1)N1C2CCC1CC(O)(c1cccnn1)C2 (stereo not shown) [XX-28] |  |  | 0.5 to 10
Cc1csc(C2(O)CC3CCC(C2)N3C(=O)c2csc(-c3cn[nH]c3)c2)n1 (stereo not shown) [XX-30] | 0.1 to 0.5 |  | 
Cc1cnc(C2(O)CC3CCC(C2)N3C(=O)c2csc(-c3cn[nH]c3)c2)s1 (stereo not shown) [XX-32] | ≤ 0.1 |  | 
N#CC1(c2nccs2)CC2CCC(C1)N2C(=O)c1csc(-c2cn[nH]c2)c1 (stereo not shown) [XX-35] | ≤ 0.1 | ++ (31-60% ++) | 
O=C(c1csc(-c2cn[nH]c2)c1)N1C2CCC1CC(O)(c1ncco1)C2 (stereo not shown) [XX-37] | ≤ 0.1 | +++ (61-100% +++) | 
Cn1ccnc1C1(O)CC2CCC(C1)N2C(=O)c1csc(-c2cn[nH]c2)c1 (stereo not shown) [XX-38] |  |  | 0.5 to 10
Cn1nccc1C1(O)CC2CCC(C1)N2C(=O)c1csc(-c2cn[nH]c2)c1 (stereo not shown) [XX-39] | 0.1 to 0.5 |  | 
O=C(c1csc(-c2cn[nH]c2)c1)N1C2CCC1CC(O)(c1nc3ccccc3s1)C2 (stereo not shown) [XX-40] | 0.1 to 0.5 |  | 
O=C(c1csc(-c2cn[nH]c2)c1)N1C2CCC1CC(F)(c1ncccc1F)C2 (stereo not shown) [XX-41] | ≤ 0.1 |  | 
O=C(c1csc(-c2cn[nH]c2)c1)N1CCC(O)(c2ccccn2)CC1 [YY-01] |  |  | 0.5 to 10
O=C(c1csc(-c2cn[nH]c2)c1)N1CCC(O)(c2ncc(Cl)cc2Cl)CC1 [YY-03] | 0.1 to 0.5 |  | 
O=C(c1csc(-c2cn[nH]c2)c1)N1CCC(O)(c2ncccc2C(F)(F)F)CC1 [YY-04] | 0.1 to 0.5 |  | 
CCc1ccc(Cl)c(C2(O)CCN(C(=O)c3csc(-c4cn[nH]c4)c3)CC2)n1 [YY-05] | 0.1 to 0.5 |  | 
O=C(c1csc(-c2cn[nH]c2)c1)N1CCC(O)(c2ccncc2F)CC1 [YY-07] | 0.1 to 0.5 | +++ (61-100% +++) | 
O=C(c1csc(-c2cn[nH]c2)c1)N1CCC(O)(c2ncccc2F)CC1 [YY-08] |  |  | 0.5 to 10
O=C(c1csc(-c2cn[nH]c2)c1)N1CCC(F)(c2ncccc2Cl)CC1 [YY-09] | 0.1 to 0.5 | +++ (61-100% +++) | 
O=C(c1csc(-c2cn[nH]c2)c1)N1CCC(O)(c2ncccn2)CC1 [YY-10] |  |  | 0.5 to 10
O=C(c1csc(-c2cn[nH]c2)c1)N1CCC(F)(c2ncccn2)CC1 [YY-11] |  |  | 0.5 to 10
